The nature of data set [1]: Thiol reactivity by incubation with excess thiol, HPLC-UVvis. Type of data set: physicochemical. How it is done: FIGS. 5A-5B: Thiol reactivity was analyzed via incubations containing 31b (250 μM) in the presence or absence of excess (5 mM) cysteine (or N-acetylcysteine [NAc]) in PBS (50 mM, pH
(§1) 7.4) at 37° C. (FIG. 5A). Incubations were placed in a temperature controlled HPLC autosampler and aliquots are analyzed by HPLC-UVvis periodically for 2-24 hr. Percent furoxan remaining was determined based on the area under the curve (AUC) of the HPLC UV-absorbance spectrum. Similarly, rat liver microsomes were incubated with 31b in the presence or absence of NADPH to determine microsomal stability (FIG. 5B). Warfarin and verapamil were used as slow and fast metabolizing controls.
Without wishing to be bound by theory, it is believed that furoxans require thiol attack to produce NO. […] Thiol reactivity of 31b was assessed via incubations with excess thiol (N-acetylcysteine [NAc]) at physiological pH and temperature using a temperature controlled HPLC autosampler. […]
HPLC method: solvents, H2O [0.1% FA]—solvent A; MeOH [0.1% FA]—solvent B; flow rate 1.0 mL/min. […] As described above, thiol reactivity was analyzed via incubations containing the furoxan (250 μM) in the presence or absence of excess (5 mM) cysteine (or N-acetylcysteine [NAc]) in PBS (50 mM, pH 7.4) at 37° C. Incubations were placed in a temperature controlled HPLC autosampler and aliquots were analyzed by HPLC-UVvis periodically for 2-24 hr. […]

Data set [2] in a line: Rat liver microsome metabolic stability. Type of data set: in vitro ADME. The following applies: rat liver microsomes, read-out: RLM t1/2. On the procedure:
as §1
Metabolic stability is an important parameter for determining the drug-like properties of a molecule, especially when trying to develop attenuated furoxans which require reaction with thiols to produce an effect. The metabolism of 31b in the presence of rat liver microsomes (RLM) was studied. Verapamil and warfarin were used as well-characterized controls. […]
HPLC method: solvents, H2O [0.1% FA]—solvent A; MeOH [0.1% FA]—solvent B; flow rate 1.0 mL/min. […] As described above, thiol reactivity was analyzed via incubations containing the furoxan (250 μM) in the presence or absence of excess (5 mM) cysteine (or N-acetylcysteine [NAc]) in PBS (50 mM, pH 7.4) at 37° C. Incubations were placed in a temperature controlled HPLC autosampler and aliquots were analyzed by HPLC-UVvis periodically for 2-24 hr. Percent furoxan remaining was determined based on the area under the curve (AUC) of the HPLC UV-absorbance spectrum. […]
For orientation: Liver microsomes are vesicles of endoplasmic reticulum, rich in cytochrome P450 enzymes.

The next data set relates to Mice. In words: Permanent middle carotid artery occlusion (pMCAO) model of stroke. The data set is classed as in vivo. How it is done:
FIGS. 9A-9E: Evaluation of the furoxan 31b. […] Latency to fall was normalized to 4 h post-infarct mean for each group and is represented as mean and s.e.m. (n=12). Analyzed using one way ANOVA analysis with Tukey's post-hoc test. […] Each of the seven tests included in the 28-point NDS was graded from 0-4, with higher scores indicating severe deficits (n=12). Compared using unpaired t-test. […] Compared using unpaired t-test. For all data, *=p<0.05, **=p<0.01, ***=p<0.001.
31b (20 mg/kg, i.p.) was administered once daily for 6 days beginning 12 hr after permanent MCAO (pMCAO, FIG. 9A). pMCAO was chosen rather than 2-VO because pMCAO is much simpler and more reliable (pMCAO-no loss of animals vs 2-VO˜30% lethality 7 days post-op). Ultimately, this model allowed for the provision of evidence of neuroprotective efficacy and effect on BDNF.
Locomotor activity was evaluated by means of a rotarod task by a person blinded to the treatment groups. Mice were placed on a horizontal rod (Columbus Instruments, OH) that was made to rotate at 1 rpm with an acceleration rate of 1 rpm every 10 s until the animal fell from the rod. Each animal was tested three times per trial. All the animals were trained on the rotarod assembly prior to surgery. The duration for which each animal was able to stay on the accelerating rod was recorded as the latency to fall and registered manually. Locomotor activity was monitored 4 h before, 24 h, postsurgery and 7 days after p-MCAO surgery Grip strength was evaluated by holding the mice by tails and placing their forelimbs on a specially designed pull bar assemblies (Grip strength meter, Columbus Instruments, OH). […] Each animal was tested three times per trial at 4 h before, 2 and 7 days after p-MCAO surgery. NDS were evaluated by an optimized 28-point score pattern. A person blinded to the treatment evaluated NDS 7 days after p-MCAO; the evaluation included both sensory and motor deficits, such as body symmetry, gait, climbing, circling behavior, front limb symmetry, compulsory circling, and whisker response. Each of the seven tests included in the 28-point NDS was graded from 0 to 4, with higher scores indicating severe deficits. Animals from all the groups were euthanized 7 days after p-MCAO. Brains were dissected out and sliced into five 2-mm-thick coronal sections before incubating in 1% triphenyltetrazolium chloride (TTC) (Sigma Co., MI). The infarct area was estimated from five slices of each brain, measuring rostral and caudal sides of each individual slice in conjunction with the thickness and expressed as a percentage of the volume of the contralateral hemisphere. A person blinded to the treatment groups measured the infarct volume with the help of ImageJ software provided by NIH.

Where [3] appears, read: 20 mg/kg i.p. once daily for 6 days beginning 12 hr after pMCAO, day 7.

“Also recorded” adds a separate entry of the source.

For `CC1CCN(Cc2no[n+]([O-])c2-c2ccc(F)cc2)CC1` [31b], the “Stability in the presence of general cellular thiols, such as GSH and cysteine” value in data set [1] is “extremely stable”. In data set [1] (250 μM, 5 mM N-acetylcysteine, PBS pH 7.4, 37° C., after 24 hr), the “Change in amount of furoxan with excess thiol” value is listed as “no measurable change”. In data set [2], the half-life is around 11 min. Also, in the data set on Mice (20 mg/kg i.p. once daily for 6 days after pMCAO, TTC staining, p=0.11), the Infarct volume reduction is around 30%. The “BDNF levels relative to control animals” value with Mice (20 mg/kg i.p. once daily for 6 days after pMCAO, WB, p=0.07) is reported as “double the levels of control animals”. Moreover, in the data set on Mice (setting [3]), the “Behavioral functional recovery, neurologic deficit scoring (NDS)” value is on record as “reverses neurologic deficit; also recorded: significant improvement” and the “Behavioral functional recovery, rotarod” value was “improves rotarod performance; also recorded: significant improvement”.

The values above are taken from patent US10913732B2, “Furoxans as therapies for neurodegenerative disorders” (The University of Toledo, priority 2016, dated 2021).
